{
  "source": "patent US11390609B2",
  "about": "“Rho-associated protein kinase inhibitor, pharmaceutical composition comprising same, and preparation method and use thereof” (BEIJING TIDE PHARMACEUTICAL CO., LTD., priority 2017, dated 2022)",
  "key": {"ROCK2": {"molecular_target": "ROCK2 (Homo sapiens, UniProt O75116)", "assay": "ROCK2 kinase IC50 assay (CISBIO HTRF KinEASE-STK S2 kit)", "format": "biochemical", "details": "incubated at room temperature for 2 hours", "in_short": "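HTRF KinEASE-STK S2 format with recombinant ROCK2 (1.4 ng per well), STK-S2 substrate and ATP from 5× working solutions of 1.5 μM each, run 2 h at room temperature. Nine-point dilutions from 10000 nM top concentration; 665/615 nm emission ratio normalised to no-compound and no-kinase controls, curve-fitted for IC50.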"}, "ROCK1": {"molecular_target": "ROCK1 (Homo sapiens (Human), UniProt Q13464)", "sequence (Q13464 whole entry, species assumed)": "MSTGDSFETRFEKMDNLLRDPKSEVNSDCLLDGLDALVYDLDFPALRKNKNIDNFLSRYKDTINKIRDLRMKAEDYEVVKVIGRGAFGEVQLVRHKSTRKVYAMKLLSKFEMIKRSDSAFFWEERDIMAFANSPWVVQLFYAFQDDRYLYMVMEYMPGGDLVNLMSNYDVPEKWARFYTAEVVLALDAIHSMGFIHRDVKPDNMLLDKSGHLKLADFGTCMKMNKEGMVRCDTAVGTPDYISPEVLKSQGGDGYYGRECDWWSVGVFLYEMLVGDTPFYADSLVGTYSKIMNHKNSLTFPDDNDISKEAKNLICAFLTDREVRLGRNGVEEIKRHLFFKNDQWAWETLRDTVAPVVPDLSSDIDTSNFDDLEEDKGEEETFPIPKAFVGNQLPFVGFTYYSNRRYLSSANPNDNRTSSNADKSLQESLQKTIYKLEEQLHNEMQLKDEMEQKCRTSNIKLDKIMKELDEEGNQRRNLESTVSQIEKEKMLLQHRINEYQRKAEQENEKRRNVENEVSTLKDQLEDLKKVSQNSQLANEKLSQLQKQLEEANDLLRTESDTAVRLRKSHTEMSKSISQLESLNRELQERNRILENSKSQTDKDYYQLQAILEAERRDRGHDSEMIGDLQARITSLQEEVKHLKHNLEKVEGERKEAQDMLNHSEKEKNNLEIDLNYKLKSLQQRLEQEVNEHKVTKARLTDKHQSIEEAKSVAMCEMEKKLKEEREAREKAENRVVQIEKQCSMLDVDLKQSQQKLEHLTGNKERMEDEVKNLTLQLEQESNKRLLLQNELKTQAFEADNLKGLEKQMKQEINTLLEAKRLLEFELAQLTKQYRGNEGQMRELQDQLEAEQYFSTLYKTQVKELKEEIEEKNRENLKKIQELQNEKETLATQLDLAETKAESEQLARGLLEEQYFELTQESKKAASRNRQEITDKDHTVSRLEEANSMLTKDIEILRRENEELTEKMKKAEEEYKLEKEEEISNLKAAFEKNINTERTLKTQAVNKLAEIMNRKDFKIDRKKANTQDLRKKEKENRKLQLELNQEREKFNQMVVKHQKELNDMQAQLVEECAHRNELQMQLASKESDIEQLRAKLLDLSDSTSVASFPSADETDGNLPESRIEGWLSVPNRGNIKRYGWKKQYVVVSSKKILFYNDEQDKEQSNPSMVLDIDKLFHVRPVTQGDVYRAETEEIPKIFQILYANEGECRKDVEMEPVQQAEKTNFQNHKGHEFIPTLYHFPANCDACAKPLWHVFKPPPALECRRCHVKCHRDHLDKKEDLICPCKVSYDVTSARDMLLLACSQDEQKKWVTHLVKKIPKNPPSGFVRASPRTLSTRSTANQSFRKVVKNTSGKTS", "assay": "ROCK1 kinase IC50 assay (biological test method similar to the ROCK2 assay)", "format": "biochemical", "in_short": "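Compound dilution series (9 concentrations, top solution 10000 nM, DMSO-containing buffer) incubated 2 h at room temperature with kinase, STK-S2 substrate and ATP (5× working solutions of 1.5 µM each). Phosphorylation detected by HTRF (665/615 nm emission ratio) after 1 h; inhibition relative to full-reaction and kinase-free wells, fitted for IC50.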"}},
  "data": [
    {"compound": "Cn1c(C(=O)N2CC(C(F)(F)F)C2)cc2ccc(-c3nccc(Nc4ccc(-c5cn[nH]c5)cc4)n3)cc21", "note": "[TDI01538, (6-(4-((4-(1H-pyrazol-4-yl)phenyl)amino)pyrimidin-2-yl)-1-methyl-1H-indol-2-yl)(3-(trifluoromethyl)azetidin-1-yl)methanone]", "values": [
      {"measurement": "IC50", "setting": "ROCK2", "value": 198, "unit": "nM"},
      {"measurement": "IC50", "setting": "ROCK1", "value": 4930, "unit": "nM"}
    ]},
    {"compound": "O=C(C1CC2(CCNCC2)C1)N1Cc2ccc(-c3nccc(Nc4ccc(-c5cn[nH]c5)cc4)n3)cc2C1", "note": "[TDI01546, (5-(4-((4-(1H-pyrazol-4-yl)phenyl)amino)pyrimidin-2-yl)isoindolin-2-yl)(7-azaspiro[3.5]nonan-2-yl)methanone]", "values": [
      {"measurement": "IC50", "setting": "ROCK2", "value": 26, "unit": "nM"},
      {"measurement": "IC50", "setting": "ROCK1", "value": 1550, "unit": "nM"}
    ]},
    {"compound": "O=C(OC1CCNC1)N1Cc2ccc(-c3nccc(Nc4ccc(-c5cn[nH]c5)cc4)n3)cc2C1", "note": "(centres unmarked) [TDI01551, pyrrolidin-3-yl 5-(4-((4-(1H-pyrazol-4-yl)phenyl)amino)pyrimidin-2-yl)isoindoline-2-carboxylate]", "values": [
      {"measurement": "IC50", "setting": "ROCK2", "value": 31, "unit": "nM"},
      {"measurement": "IC50", "setting": "ROCK1", "value": 1730, "unit": "nM"}
    ]},
    {"compound": "CN1CCC(OC(=O)N2Cc3ccc(-c4nccc(Nc5ccc(-c6cn[nH]c6)cc5)n4)cc3C2)C1", "note": "(centres unmarked) [TDI01552, 1-methylpyrrolidin-3-yl5-(4-((4-(1H-pyrazol-4-yl)phenyl)amino)pyrimidin-2-yl)isoindoline-2-carboxylate]", "values": [
      {"measurement": "IC50", "setting": "ROCK2", "value": 51, "unit": "nM"},
      {"measurement": "IC50", "setting": "ROCK1", "value": 2950, "unit": "nM"}
    ]},
    {"compound": "O=C(N1CCN(C2COC2)CC1)N1Cc2ccc(-c3nccc(Nc4ccc(-c5cn[nH]c5)cc4)n3)cc2C1", "note": "[TDI01555, (5-(4-((4-(1H-pyrazol-4-yl)phenyl)amino)pyrimidin-2-yl)isoindolin-2-yl)(4-(oxetan-3-yl)piperazin-1-yl)methanone]", "values": [
      {"measurement": "IC50", "setting": "ROCK2", "value": 140, "unit": "nM"},
      {"measurement": "IC50", "setting": "ROCK1", "value": "> 10000", "unit": "nM"}
    ]},
    {"compound": "CC(C)(C)OC(=O)N1Cc2ccc(-c3nccc(Nc4ccc(-c5cn[nH]c5)cc4)n3)cc2C1", "note": "[TDI01557B, tert-butyl 5-(4-((4-(1H-pyrazol-4-yl)phenyl)amino)pyrimidin-2-yl)isoindoline-2-carboxylate]", "values": [
      {"measurement": "IC50", "setting": "ROCK2", "value": 49, "unit": "nM"},
      {"measurement": "IC50", "setting": "ROCK1", "value": "> 10000", "unit": "nM"}
    ]},
    {"compound": "O=C(OCc1ccccc1)N1Cc2ccc(-c3nccc(Nc4ccc(-c5cn[nH]c5)cc4)n3)cc2C1", "note": "[TDI01559, benzyl 5-(4-((4-(1H-pyrazol-4-yl)phenyl)amino)pyrimidin-2-yl)isoindolin-2-carboxylate]", "values": [
      {"measurement": "IC50", "setting": "ROCK2", "value": 170, "unit": "nM"},
      {"measurement": "IC50", "setting": "ROCK1", "value": "> 10000", "unit": "nM"}
    ]},
    {"compound": "O=C(C1CCOCC1)N1Cc2ccc(-c3nccc(Nc4ccc(-c5cn[nH]c5)cc4)n3)cc2C1", "note": "[TDI01560, (5-(4-((4-(1H-pyrazol-4-yl)phenyl)amino)pyrimidin-2-yl)isoindolin-2-yl)(tetrahydro-2H-pyran-4-yl)methanone]", "values": [
      {"measurement": "IC50", "setting": "ROCK2", "value": 83, "unit": "nM"},
      {"measurement": "IC50", "setting": "ROCK1", "value": "> 10000", "unit": "nM"}
    ]},
    {"compound": "O=C(C1CC(O)C1)N1Cc2ccc(-c3nccc(Nc4ccc(-c5cn[nH]c5)cc4)n3)cc2C1", "note": "(centres unmarked) [TDI01561, (5-(4-((4-(1H-pyrazol-4-yl)phenyl)amino)pyrimidin-2-yl)isoindolin-2-yl)(3-hydroxycyclobutyl) methanone]", "values": [
      {"measurement": "IC50", "setting": "ROCK2", "value": 205, "unit": "nM"},
      {"measurement": "IC50", "setting": "ROCK1", "value": "> 10000", "unit": "nM"}
    ]},
    {"compound": "O=C(OC1CC(F)(F)C1)N1Cc2ccc(-c3nccc(Nc4ccc(-c5cn[nH]c5)cc4)n3)cc2C1", "note": "[TDI01562, 3,3-difluorocyclobutyl 5-(4-((4-(1H-pyrazol-4-yl)phenyl)amino)pyrimidin-2-yl)isoindoline-2-carboxylate]", "values": [
      {"measurement": "IC50", "setting": "ROCK2", "value": 23, "unit": "nM"},
      {"measurement": "IC50", "setting": "ROCK1", "value": "> 10000", "unit": "nM"}
    ]},
    {"compound": "O=C(C1CC(F)(F)C1)N1Cc2ccc(-c3nc(Nc4ccc(-c5cn[nH]c5)cc4)c4cc[nH]c4n3)cc2C1", "note": "[TDI01565, (5-(4-((4-(1H-pyrazol-4-yl)phenyl)amino)-7H-pyrrolo[2,3-d]pyrimidin-2-yl)isoindolin-2-yl)(3,3-difluorocyclobutyl)methanone]", "values": [
      {"measurement": "IC50", "setting": "ROCK2", "value": 57, "unit": "nM"},
      {"measurement": "IC50", "setting": "ROCK1", "value": "> 10000", "unit": "nM"}
    ]},
    {"compound": "NC(=O)c1cnc(-c2ccc3c(c2)CN(C(=O)C2CC(F)(F)C2)C3)nc1Nc1ccc(-c2cn[nH]c2)cc1", "note": "[TDI01567, 4-((4-(1H-pyrazol-4-yl)phenyl)amino)-2-(2-(3,3-difluorocyclobutane-1-carbonyl)isoindolin-5-yl)pyrimidin-5-carboxamide]", "values": [
      {"measurement": "IC50", "setting": "ROCK2", "value": 65, "unit": "nM"},
      {"measurement": "IC50", "setting": "ROCK1", "value": "> 10000", "unit": "nM"}
    ]},
    {"compound": "O=C(O)c1cnc(-c2ccc3c(c2)CN(C(=O)C2CC(F)(F)C2)C3)nc1Nc1ccc(-c2cn[nH]c2)cc1", "note": "[TDI01567C]", "values": [
      {"measurement": "IC50", "setting": "ROCK2", "value": 29, "unit": "nM"},
      {"measurement": "IC50", "setting": "ROCK1", "value": "> 10000", "unit": "nM"}
    ]},
    {"compound": "O=C(C1CC(F)(F)C1)N1CCc2ccc(-c3nccc(Nc4ccc5[nH]ncc5c4)n3)cc2C1", "note": "[TDI01575, (7-(4-((1H-indazol-5-yl)amino)pyrimidin-2-yl)-3,4-dihydroisoquinolin-2(1H)-yl)(3,3-difluorocyclobutyl) methanone]", "values": [
      {"measurement": "IC50", "setting": "ROCK2", "value": 169, "unit": "nM"},
      {"measurement": "IC50", "setting": "ROCK1", "value": "> 10000", "unit": "nM"}
    ]},
    {"compound": "O=C(c1cc2ccc(-c3ncnc(Nc4ccc(-c5cn[nH]c5)cc4)n3)cc2[nH]1)N1CC(F)(F)C1", "note": "[TDI01581, (6-(4-((4-(1H-pyrazol-4-yl)phenyl)amino)-1,3,5-triazin-2-yl)-1H-indol-2-yl)(3,3-difluoroazetidin-1-yl)methanone]", "values": [
      {"measurement": "IC50", "setting": "ROCK2", "value": 28, "unit": "nM"},
      {"measurement": "IC50", "setting": "ROCK1", "value": "> 10000", "unit": "nM"}
    ]},
    {"compound": "CC(=O)N1Cc2nc(-c3ccc4c(c3)CN(C(=O)C3CC(F)(F)C3)C4)nc(Nc3ccc(-c4cn[nH]c4)cc3)c2C1", "note": "[TDI01587, 1-(4-((4-(1H-pyrazol-4-yl)phenyl)amino)-2-(2-(3,3-difluorocyclobutane-1-carbonyl)isoindolin-5-yl)-5,7-dihydro-6H-pyrrolo[3,4-d]pyrimidin-6-yl)ethan-1-one]", "values": [
      {"measurement": "IC50", "setting": "ROCK2", "value": 25, "unit": "nM"},
      {"measurement": "IC50", "setting": "ROCK1", "value": "> 10000", "unit": "nM"}
    ]},
    {"compound": "O=C(C1CC(F)(F)C1)N1Cc2ccc(-c3ncc(F)c(Nc4ccc5[nH]ncc5c4)n3)cc2C1", "note": "[TDI01589, (5-(4-((1H-indazol-5-yl)amino)-5-fluoropyrimidin-2-yl)isoindolin-2-yl)(3,3-difluorocyclobutyl)methnone]", "values": [
      {"measurement": "IC50", "setting": "ROCK2", "value": 39, "unit": "nM"},
      {"measurement": "IC50", "setting": "ROCK1", "value": "> 10000", "unit": "nM"}
    ]},
    {"compound": "O=C1c2cc(-c3ncc(F)c(Nc4ccc(-c5cn[nH]c5)cc4)n3)ccc2CN1CC1CC(F)(F)C1", "note": "[TDI01590, 6-(4-((4-(1H-pyrazol-4-yl)phenyl)amino)-5-fluoropyrimidin-2-yl)-2-((3,3-difluorocyclobutyl)methyl)isoindolin-1-one]", "values": [
      {"measurement": "IC50", "setting": "ROCK2", "value": 266, "unit": "nM"},
      {"measurement": "IC50", "setting": "ROCK1", "value": "> 10000", "unit": "nM"}
    ]},
    {"compound": "O=C(C1CC(F)(F)C1)N1CCc2cc(-c3ncc(F)c(Nc4ccc(-c5cn[nH]c5)cc4)n3)ccc2C1", "note": "[TDI01596, (6-(4-((4-(1H-pyrazol-4-yl)phenyl)amino)-5-fluoropyrimidin-2-yl)-3,4-dihydroisoquinolin-2(1H)-yl)(3,3-difluorocyclobutyl)methanone]", "values": [
      {"measurement": "IC50", "setting": "ROCK2", "value": 275, "unit": "nM"},
      {"measurement": "IC50", "setting": "ROCK1", "value": "> 10000", "unit": "nM"}
    ]},
    {"compound": "O=C(CC1CCOC1)N1Cc2ccc(-c3nccc(Nc4ccc(-c5cn[nH]c5)cc4)n3)cc2C1", "note": "(centres unmarked) [TDI01597B, 1-(5-(4-((4-(1H-pyrazol-4-yl)phenyl)amino)pyrimidin-2-yl)isoindolin-2-yl)-2-(tetrahydrofuran-3-yl)ethan-1-one]", "values": [
      {"measurement": "IC50", "setting": "ROCK2", "value": 123, "unit": "nM"},
      {"measurement": "IC50", "setting": "ROCK1", "value": "> 10000", "unit": "nM"}
    ]},
    {"compound": "O=C(C1CC(F)(F)C1)N1Cc2ccc(-c3ncc(F)c(Nc4ccc(-c5cn[nH]c5)cc4F)n3)cc2C1", "note": "[TDI01598, (3,3-difluorocyclobutyl)(5-(5-fluoro-4-((2-fluoro-4-(1H-pyrazol-4-yl)phenyl)amino)pyrimidin-2-yl)isoindolin-2-yl)methanone]", "values": [
      {"measurement": "IC50", "setting": "ROCK2", "value": 216, "unit": "nM"},
      {"measurement": "IC50", "setting": "ROCK1", "value": "> 10000", "unit": "nM"}
    ]},
    {"compound": "O=C(OC1CC(F)(F)C1)N1Cc2ccc(-c3ncc(F)c(Nc4ccc5[nH]ncc5c4)n3)cc2C1", "note": "[TDI01613, 3,3-difluorocyclobutyl 5-(4-((1H-indazol-5-yl)amino)-5-fluoropyrimidin-2-yl)isoindoline-2-carboxylate]", "values": [
      {"measurement": "IC50", "setting": "ROCK2", "value": 27, "unit": "nM"},
      {"measurement": "IC50", "setting": "ROCK1", "value": "> 10000", "unit": "nM"}
    ]}
  ]
}
